Experimental data published in patent US7550613B2, “Compounds” (Pronova Biopharma Norge AS, priority 2005, dated 2009).

Columns and labels:
PPARγ = target: T1, PPARγ (Homo sapiens, UniProt P37231); experiment: Affinity testing in transfected cells (release of luciferase); format: cell-based; conditions: FIG. 8; 10 μM of PRBs
T1 construct: For full length PPAR transfection studies, each well received 5 μg reporter construct; expressed in transfected cells; host or cells: COS-1 cells
T1 sequence (P37231 1-505): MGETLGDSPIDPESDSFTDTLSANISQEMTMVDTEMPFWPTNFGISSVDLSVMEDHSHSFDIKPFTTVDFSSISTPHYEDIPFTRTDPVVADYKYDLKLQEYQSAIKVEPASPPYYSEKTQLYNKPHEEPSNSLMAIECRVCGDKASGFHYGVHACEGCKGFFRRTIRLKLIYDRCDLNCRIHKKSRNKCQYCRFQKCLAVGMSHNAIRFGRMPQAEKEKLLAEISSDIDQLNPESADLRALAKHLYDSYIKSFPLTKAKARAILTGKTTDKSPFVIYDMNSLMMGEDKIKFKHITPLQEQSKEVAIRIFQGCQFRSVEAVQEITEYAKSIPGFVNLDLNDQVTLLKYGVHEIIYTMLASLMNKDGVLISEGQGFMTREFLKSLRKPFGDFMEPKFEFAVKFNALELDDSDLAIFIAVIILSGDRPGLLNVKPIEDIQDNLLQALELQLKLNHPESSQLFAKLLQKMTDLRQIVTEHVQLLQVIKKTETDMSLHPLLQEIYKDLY
Procedure: Release of luciferase is correlated to transcription of genes. Binding of a ligand to a nuclear receptor such as PPARγ induces transcription of the respective gene thereby releasing luciferase. This technique therefore provides a measure of ligand affinity to the receptor as well as activation of the responsible gene.
Transient transfection of COS-1 cells was performed in 6-well plates as described by Graham and van der Eb (Graham). For full length PPAR transfection studies, each well received 5 μg reporter construct, 2.5 μg pSV-β-galactosidase as an internal control, 0.4 μg pSG5-PPARγ2. The cells were harvested after 72 h, and the luciferase activity was measured according to the protocol (Promega). The luciferase activity was normalised against β-galactosidase activity. The adipocytes were transfected at D11 of differentiation using 16 μl LipofectaminPlus reagent, 4 μl Lipofectamine (Life Technologies Inc.), 0.2 μg pSG5-PPARγ, and 100 ng pTK Renilla luciferase as control of transfection afficiency. […] The luciferase activities were measured as recommended by the manufacturer (Dual Luciferase assay, Promega). […]
Fatty acids (BRL or DHA) and PRBs (stock solutions) were solubilized to 0.1 M final concentration in DMSO. […] Luciferase activity was measured using a luminometer (TD-20/20 luminometer; Turner Designs, Sunnycvale, Calif.) and normalized against protein content.

[1] = Effect of DHA derivatives in adipose prone mice during 4 months of dietary interventions (Example 5a); format: in vivo, male C57BL/6 mice; conditions: for Body wt. gain / Body weight / NEFA / Insulin / TAGs: 4 months; for Body weight: * = significant vs cHF (P<0.05); for AUCglucose: intraperitoneal glucose tolerance test; for NEFA: non-esterified fatty acids; for Insulin: plasma; for TAGs: serum triglycerides
Procedure: All experiments were performed on male C57BL/6 mice, either a substrain C57BL/N (supplier: Charles River, Germany, n=160, experiments A-C, see below), or a substrain C57BL/6J (supplier: the Jackson laboratory, Bar Harbor, Me., USA, n=32, experiment D). Total numbers of animals used were higher (n=170 and 36, respectively), because of culling. In the latter case, animals were bred for several generations (<20) at the Institute of Physiology. At the beginning of the treatment, animals were 14-week-old and their body weight range was 23.6-27.1 g. One week before the study start, animals were sorted according to their body weight and assigned to subgroups (n=8) of similar mean body weight. This method allowed for culling of about 5-10% of animals showing the lowest and highest body weight, respectively. The animals eliminated from the study at this stage were sacrificed by cervical dislocation. Complete health check of mice was performed by the supplier Charles River and at the start of study serological tests were performed by ANLAB (Prague, Czech Republic). In addition, regular health checks were performed in the animal house in 3-mo-intervals using sentinel mice and serological examinations (ANLAB). In all the tests, the animals were free of specific pathogens.
• (i) Chow diet (ssniff R/M-H from SSNIFF Spezialdieten Gmbh, Soest, Germany; see also http://ssniff.de) with protein, fat and carbohydrate forming 33, 9, and 58 energy %, respectively • (ii) High-fat diet prepared in the laboratory (cHF diet) with protein, fat and carbohydrate forming 15, 59, and 26 energy %, respectively, and well characterized fatty acid composition (with most of the lipids coming from corn oil; see Ruzickova 2004) • (iii) cHF diets in which 0.15, 0.5, and 1.5% of fat (specifically the corn oil constituent) was replaced by various PRB-compounds, namely PRB1, PRB2, PRB5, PRB7, and PRB8, or by DHA. All these compounds were in the form of ethyl esters, provided by Pronova Biocare a.s. in sealed containers. Chemical composition of the PRB-compounds was unknown to the laboratory performing the experiments (Institute of Physiology, Academy of Sciences Prague, Czech Republic).
The study was based on 4 individual experiments. In each of the experiments, different PRB-compounds (or DHA, respectively) admixed to cHF diet in three different concentrations (0.15, 0.5, and 1.5% of the fat content) were tested. In each experiment, a subgroup of plain cHF diet-fed mice was included and served as a control. Mice were caged in groups of 4 and fed standard chow diet until 3 mo of age, when animals (n=8-13) were randomly assigned to the different test diets. After 2 mo on this new diet (at 5 mo of age), animals were fasted overnight and in the morning, intraperitoneal Glucose Tolerance Test (GTT) was performed. Animals were sacrificed after 4 months on the experimental diets, at 7 mo of age, and the end-point analysis were performed.

[2] = Histological analysis of tissue samples, liver fat (Example 5c); format: in vivo, C57BL/6 mice; conditions: eosin-hematoxylin; control animals fed high fat diet had fat liver
Excerpt: Tissue samples from animals in the experiments with DHA derivatives was histologically analysed. After paraffination, tissue samples from liver, adipose tissue, skeletal muscle, pancreas, and kidney were stained with eosin-hematoxylin.

For `CC/C=C\C/C=C\C/C=C\C/C=C\C/C=C\C/C=C\CC(SCC)C(=O)OCC` (stereo not drawn) [PRB-7, α-tioethyl docosahexaenoic acid ethyl ester], the “release of luciferase from transfected cells” value (PPARγ) was “significantly higher release of luciferase”, the Fasted glucose ([1]; 0.15% concentration) was 141 ± 9 mg/dL and the Fasted glucose ([1]; 0.5% concentration) was 152 ± 6 mg/dL. The Fasted glucose ([1]; 1.5% concentration) was 120 ± 9 mg/dL, the “Body wt. gain” value ([1]; 0.15% concentration) was 23.2 ± 0.7 grams and the Body weight ([1]; 0.15% concentration) was 47.4 ± 0.8* grams. For the same molecule, the Body wt. gain ([1]; 0.5% concentration) was 24.8 ± 0.8 grams, the Body weight ([1]; 0.5% concentration) was 48.8 ± 0.9 grams and the Body wt. gain ([1]; 1.5% concentration) was 21.7 ± 0.9 grams. The Body weight ([1]; 1.5% concentration in cHF diet) was 45.9 ± 1.1* grams, the AUCglucose ([1]; 0.15% concentration) was 1425 ± 97 mM × 180 min and the AUCglucose ([1]; 0.5% concentration) was 1674 ± 203 mM × 180 min. For the same molecule, the AUCglucose ([1]; 1.5% concentration) was 1122 ± 73 mM × 180 min, the NEFA ([1]; 0.15% concentration) was 0.85 ± 0.06 mmol/L and the NEFA ([1]; 0.5% concentration) was 0.87 ± 0.04 mmol/L. It also gave an NEFA ([1]; 1.5% concentration) of 0.82 ± 0.06 mmol/L, an Insulin ([1]; 0.15% concentration) of 3.76 ± 0.72 ng/mL and an Insulin ([1]; 0.5% concentration) of 4.10 ± 0.57 ng/mL. The Insulin ([1]; 1.5% concentration) was 4.42 ± 0.87 ng/mL, the TAGs ([1]; 0.15% concentration) was 1.41 ± 0.11 mmol/L and the TAGs ([1]; 0.5% concentration) was 1.42 ± 0.08 mmol/L. The TAGs ([1]; 1.5% concentration) was 1.15 ± 0.08 mmol/L and the “fat liver (liver steatosis), histology” value [2] was “low degree of fat liver”.
